Laboratory results as given in patent US11707454B2, “Topical roflumilast formulation having antifungal properties” (ARCUTIS BIOTHERAPEUTICS, INC., priority 2020, dated 2023).
Values after ≈ are worked out from the molar mass of the structure shown. Read-outs that look alike come from different tables or passages of the source.

Columns and labels:
[1] = system: C. parapsilosis (ATCC 22019); details: cited from earlier work
[2] = system: C. krusei (ATCC 6258); details: cited from earlier work
[3] = system: C. parapsilosis (ATCC 22019); test: in vitro micro-dilution susceptibility assay (method of Rojas); format: cell-based; details: C. parapsilosis (22019); for MIC: Lodderomyces parapsilosis, read-out: minimum inhibition concentration (MIC)
Procedure: (§1) The in vitro susceptibility of Malassezia species to roflumilast was determined utilizing three Candida species as internal control isolates for all testing. These three isolates were C. albicans American Type Culture Collection (ATCC) 90028, C. krusei (ATCC 6258) and C. parapsilosis (ATCC 22019). In addition to testing roflumilast all susceptibility assays were conducted using ketoconazole and hydrocortisone as positive and negative control compounds, respectively. All assays were placed within a humidified incubator set to 32° C. for a total of seven days. Each assay was evaluated after 12 hours of incubation and, every 24 hours post incubation for a total of seven days. The assays were evaluated for visual growth of each pathogen in the no treatment control as well as determination of minimum inhibition concentration (MIC) values. The concentration that provides a 3-log10 CFU/mL reduction in fungal burden from baseline at day 0 was defined as the minimum fungicidal concentration (MHC) and was determined by quantifying fungal burdens found in the microplate at day seven.
(§2) The method of Rojas (Rojas F D, et al. Antifungal susceptibility of Malassezia furfur, Malassezia sympodialis, and Malassezia globose to azole drugs and amphotericin B evaluated using a broth microdilution method. 2014. Medical Mycology. 52:641-646) was used in which the liquid broth medium was RPMI 1640 with added 1.8% glucose, 1% peptone, 0.5% ox-bile, 0.5% malt extract, 1% glycerol, 0.5% Tween 40 and 0.05% Tween 80. Round bottom 96 well microplates were used. The inoculums were prepared in sterile saline and diluted to a final targeted concentration of 0.5×10^5 to 2.5×10^5 CFU/mL in supplemented RPMI. […] For the internal control isolate C. parapsilosis (ATCC 22019) the expected CLSI values for ketoconazole of 0.03-0.25 (at 24 hours) and 0.06-0.5 (at 48 hours) did agree with the 2-day value (Table A) of 0.5.

[4] = system: M. furfur (ATCC 12078); test: as above; format: cell-based; details: for MIC: Malassezia furfur, read-out: minimum inhibition concentration (MIC)
Procedure: as §1, §2

[5] = system: M. furfur (ATCC 44344); test: as above; format: cell-based; details: for MIC: Malassezia furfur, read-out: minimum inhibition concentration (MIC)
Procedure: as §1, §2

[6] = system: M. restricta (ATCC MYA-4611); test: as above; format: cell-based
Procedure: as §1, §2

[7] = system: C. krusei (ATCC 6258); test: as above; format: cell-based; details: for MIC: Pichia kudriavzevii, read-out: minimum inhibition concentration (MIC)
Procedure: as §1, §2

[8] = system: C. albicans (ATCC 90028); test: as above; format: cell-based; details: for MIC: Candida albicans, read-out: minimum inhibition concentration (MIC)
Procedure: as §1, §2

[9] = system: M. furfur (ATCC 14521); test: as above; format: cell-based; details: for MIC: Malassezia furfur, read-out: minimum inhibition concentration (MIC)
Procedure: as §1, §2

[10] = system: M. globose (ATCC MYA-4889); test: as above; format: cell-based
Procedure: as §1, §2

CC(=O)N1CCN(c2ccc(OCC3COC(Cn4ccnc4)(c4ccc(Cl)cc4Cl)O3)cc2)CC1 (centres unmarked) [Ketoconazole]
expected CLSI values ([1]; at 24 hours): 0.03-0.25
expected CLSI values ([1]; at 48 hours): 0.06-0.5
CLSI expected values ([2]; at 24 hours): 0.12-1
CLSI expected values ([2]; at 48 hours): 0.25-1
minimum inhibition concentration (MIC) ([3]; Time 0.5 days): NGO
MIC ([3]; ATCC22019, 24 h, Time 1 days): 0.5 µg/mL (≈ 0.941 µM)
MIC ([3]; ATCC22019, 48 h, Time 2 days): 0.5 µg/mL (≈ 0.941 µM)
MIC ([3]; ATCC22019, 72 h, Time 3 days): 0.5 µg/mL (≈ 0.941 µM)
MIC ([3]; ATCC22019, 96 h, Time 4 days): 0.5 µg/mL (≈ 0.941 µM)
MIC ([3]; ATCC22019, 120 h, Time 5 days): 1 µg/mL (≈ 1.88 µM)
MIC ([3]; ATCC22019, 144 h, Time 6 days): 1 µg/mL (≈ 1.88 µM)
MIC ([3]; ATCC22019, 168 h, Time 7 days): 2 µg/mL (≈ 3.76 µM)
MIC ([4]; ATCC12078, 48 h, Time 2 days): 0.06 µg/mL (≈ 0.113 µM)
MIC ([4]; ATCC12078, 72 h, Time 3 days): 0.06 µg/mL (≈ 0.113 µM)
MIC ([4]; ATCC12078, 96 h, Time 4 days): 0.06 µg/mL (≈ 0.113 µM)
MIC ([4]; ATCC12078, 120 h, Time 5 days): 0.06 µg/mL (≈ 0.113 µM)
MIC ([4]; ATCC12078, 144 h, Time 6 days): 0.06 µg/mL (≈ 0.113 µM)
MIC ([4]; ATCC12078, 168 h, Time 7 days): 0.25 µg/mL (≈ 0.47 µM)
minimum inhibition concentration (MIC) ([4]; Time 0.5 days): NGO
minimum inhibition concentration (MIC) ([4]; Time 1 days): NGO
MIC ([5]; ATCC44344, 48 h, Time 2 days): 0.125 µg/mL (≈ 0.235 µM)
MIC ([5]; ATCC44344, 72 h, Time 3 days): 0.125 µg/mL (≈ 0.235 µM)
MIC ([5]; ATCC44344, 96 h, Time 4 days): 0.125 µg/mL (≈ 0.235 µM)
MIC ([5]; ATCC44344, 120 h, Time 5 days): 0.25 µg/mL (≈ 0.47 µM)
MIC ([5]; ATCC44344, 144 h, Time 6 days): 0.25 µg/mL (≈ 0.47 µM)
MIC ([5]; ATCC44344, 168 h, Time 7 days): 0.125 µg/mL (≈ 0.235 µM)
minimum inhibition concentration (MIC) ([5]; Time 0.5 days): NGO
minimum inhibition concentration (MIC) ([5]; Time 1 days): NGO
minimum inhibition concentration (MIC) ([6]; Time 0.5 days): NGO
minimum inhibition concentration (MIC) ([6]; Time 1 days): NGO
minimum inhibition concentration (MIC) ([6]; Time 2 days): NGO
minimum inhibition concentration (MIC) ([6]; Time 3 days): NGO
minimum inhibition concentration (MIC) ([6]; Time 4 days): NGO
minimum inhibition concentration (MIC) ([6]; Time 5 days): NGO
minimum inhibition concentration (MIC) ([6]; Time 6 days): NGO
minimum inhibition concentration (MIC) ([6]; Time 7 days): NGO
MIC ([7]; ATCC6258, 24 h, Time 1 days): 4 µg/mL (≈ 7.53 µM)
MIC ([7]; ATCC6258, 48 h, Time 2 days): 8 µg/mL (≈ 15.1 µM)
MIC ([7]; ATCC6258, 72 h, Time 3 days): 16 µg/mL (≈ 30.1 µM)
MIC ([7]; ATCC6258, 96 h, Time 4 days): 16 µg/mL (≈ 30.1 µM)
MIC ([7]; ATCC6258, 120 h, Time 5 days): 16 µg/mL (≈ 30.1 µM)
MIC ([7]; ATCC6258, 144 h, Time 6 days): 32 µg/mL (≈ 60.2 µM)
MIC ([7]; ATCC6258, 168 h, Time 7 days): 32 µg/mL (≈ 60.2 µM)
minimum inhibition concentration (MIC) ([7]; Time 0.5 days): NGO
MIC ([8]; ATCC90028, 24 h, Time 1 days): 0.06 µg/mL (≈ 0.113 µM)
MIC ([8]; ATCC90028, 48 h, Time 2 days): 0.06 µg/mL (≈ 0.113 µM)
MIC ([8]; ATCC90028, 72 h, Time 3 days): 0.125 µg/mL (≈ 0.235 µM)
MIC ([8]; ATCC90028, 96 h, Time 4 days): 0.25 µg/mL (≈ 0.47 µM)
MIC ([8]; ATCC90028, 120 h, Time 5 days): 0.25 µg/mL (≈ 0.47 µM)
MIC ([8]; ATCC90028, 144 h, Time 6 days): 0.25 µg/mL (≈ 0.47 µM)
MIC ([8]; ATCC90028, 168 h, Time 7 days): 0.25 µg/mL (≈ 0.47 µM)
minimum inhibition concentration (MIC) ([8]; Time 0.5 days): NGO
MIC ([9]; ATCC14521, 48 h, Time 2 days): 0.03 µg/mL (≈ 0.0565 µM)
MIC ([9]; ATCC14521, 72 h, Time 3 days): 0.06 µg/mL (≈ 0.113 µM)
MIC ([9]; ATCC14521, 96 h, Time 4 days): 0.06 µg/mL (≈ 0.113 µM)
MIC ([9]; ATCC14521, 120 h, Time 5 days): 0.06 µg/mL (≈ 0.113 µM)
MIC ([9]; ATCC14521, 144 h, Time 6 days): 0.06 µg/mL (≈ 0.113 µM)
MIC ([9]; ATCC14521, 168 h, Time 7 days): 0.25 µg/mL (≈ 0.47 µM)
minimum inhibition concentration (MIC) ([9]; Time 0.5 days): NGO
minimum inhibition concentration (MIC) ([9]; Time 1 days): NGO
minimum inhibition concentration (MIC) ([10]; Time 0.5 days): NGO
minimum inhibition concentration (MIC) ([10]; Time 1 days): NGO
minimum inhibition concentration (MIC) ([10]; Time 2 days): NGO
minimum inhibition concentration (MIC) ([10]; Time 3 days): NGO
minimum inhibition concentration (MIC) ([10]; Time 4 days): NGO
minimum inhibition concentration (MIC) ([10]; Time 5 days): NGO
minimum inhibition concentration (MIC) ([10]; Time 6 days): NGO
minimum inhibition concentration (MIC) ([10]; Time 7 days): NGO
